Laboratory results from patent publication US9206246B2, “Heparin/heparan sulfate-dependent inhibitors of activated protein C and uses thereof in treating hemophilic disorders” (Academia Sinica, priority 2012, dated 2015).
Several values for one entry are separate records, joined by “and”; a condition that tells them apart may be missing. Identical values can stand only once.

Tests used:
[1] = tested on: FVIII-deficient plasma; assay: Thrombin generation assay in FVIII-deficient plasma; assay type: biochemical; conditions: 100 nM TM, 2 μg/ml heparan sulfate
Description: (A) Representative thrombin generation curves in FVIII-deficient and FIX-deficient plasma performed in the presence of heparan sulfate (2 μg/ml), TM (100 nM) and varying concentrations of DrKIn-I (●, 0 nM; ▪, 20 nM; ▴, 40 nM; ▾, 80 nM; ◯, 200 nM). Dashed lines represent thrombin generation in the absence of TM and DrKIn-I. (B-C) Activity in FVIII-deficient (B) and FIX-deficient (C) plasma. Left panels show ETP; right panels, peak thrombin. For comparison, dashed lines represent the activity of normal plasma containing TM and heparan sulfate in the absence of the inhibitor. Results are represented as means±SEM of at least three independent experiments.
Briefly, 80 μl of either normal plasma, protein C-deficient plasma, FVIII-deficient plasma or FIX deficient plasma containing 2 μM corn trypsin inhibitor, 2 μg/ml heparan sulfate (four disaccharide units long), 30 μM DOPC/DOPS/DOPE (60:20:20) and 100 nM recombinant TM was incubated with 20 μl of 500-fold diluted TF solution (Innovin; Dade Behring) in the absence or presence of the indicated concentrations of DrKIn-I. Following incubation for 3 minutes at 37° C., thrombin generation was initiated by the dispensation of 20 μl of 2.5 mM fluorogenic substrate (Z-Gly-Gly-Arg-AMC.HCl) dissolved in 0.15 M NaCl, 60 mg/ml BSA and 100 mM CaCl2. […] Results were evaluated using the Technothrombin TGA software (Technoclone).

[2] = biological target: APC (Homo sapiens, UniProt P04070); assay: Surface plasmon resonance, immobilized APC; assay type: binding; set-up: purchased Haematologic Technologies; conditions: no heparin
Sequence of APC (P04070 212-450 limits assumed): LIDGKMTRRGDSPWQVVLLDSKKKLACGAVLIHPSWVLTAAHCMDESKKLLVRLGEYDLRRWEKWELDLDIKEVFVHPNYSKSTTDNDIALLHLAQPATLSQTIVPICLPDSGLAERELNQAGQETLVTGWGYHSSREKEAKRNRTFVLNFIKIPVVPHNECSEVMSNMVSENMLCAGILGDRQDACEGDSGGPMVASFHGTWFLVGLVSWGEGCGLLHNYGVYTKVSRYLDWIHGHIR
Sequence of APC (P04070 43-197 limits assumed): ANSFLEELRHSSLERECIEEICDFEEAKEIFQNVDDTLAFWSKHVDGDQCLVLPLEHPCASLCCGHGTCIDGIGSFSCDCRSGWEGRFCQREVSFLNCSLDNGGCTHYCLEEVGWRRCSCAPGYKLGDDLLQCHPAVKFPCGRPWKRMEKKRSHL
Description: A: 70 μg of DrKIn-I in 0.1 ml equilibrating buffer (20 mM Tris-HCl, pH 8.0) was applied to a 5 ml HiTrap Heparin column and eluted with a 50 ml gradient from 0.0-1.0 M NaCl. […] The thin lines represent the global fit to the response data. […] Results shown are means±SD of three experiments. Representative binding traces are shown.
Biacore T200 (GE Healthcare) was used for analysis. APC or PC dissolved in 10 mM acetate buffer (pH 5.0) was immobilized on a CM5 sensor chip to a response unit (RU) of 1000 with an amine coupling kit. Associations and dissociations of DrKIn-I were performed in 10 mM HEPES (N-2-hydroxyethylpiperazine-N′-2-ethanesulfonic acid; pH 7.4), 150 mM NaCl, 3 mM EDTA (ethylenediaminetetraacetic acid) and 0.05% P20 with a flow rate of 60 μl/min. […] Binding kinetics were determined by global fitting to 1:1 Langmuir binding model using the Biaevaluation software (GE Healthcare).

[3] = Heparin binding assay (HiTrap Heparin column, NaCl gradient); conditions: 0.0-1.0 M NaCl gradient, 20 mM Tris-HCl pH 8.0
Description: A: 70 μg of DrKIn-I in 0.1 ml equilibrating buffer (20 mM Tris-HCl, pH 8.0) was applied to a 5 ml HiTrap Heparin column and eluted with a 50 ml gradient from 0.0-1.0 M NaCl. The salt concentration corresponding to the elution peak was determined to be 0.95 M. B, Binding of DrKIn-I (0.78, 1.56, 2.34, 3.13, 4.68 and 6.25 nM) to immobilized APC was assessed in buffer containing 10 mM HEPES, 0.15 M NaCl, 3 mM EDTA and 0.05% P20 at a flow rate of 60 μl/min at 25° C. […] The thin lines represent the global fit to the response data. […] Results shown are means±SD of three experiments. Representative binding traces are shown.

DrKIn-I (CGGNDNNFETRKKCRQTCGAPRKGRPT)
DrKIn-I concentration correcting ETP to normal levels [1]: 60 nM | DrKIn-I concentration correcting peak thrombin to normal levels [1]: 130 nM | association rate constant ([2]; 1:1 Langmuir model): 1.3±0.8×10^7 M^−1 s^−1 and ~1.3×10^7 M^−1 s^−1 and 1.7×10^7 M^−1 s^−1 | dissociation rate constant ([2]; 1:1 Langmuir model): 3.4±2.2×10^−2 s^−1 | Kd ([2]; 25° C.): ~2.6 nM | NaCl concentration at elution from heparin column [3]: 0.95 M
